Values of other authors, collected in US11633460B2, “Injectable solution at pH 7 comprising at least one basal insulin wherein the pI is comprised from 5.8 to 8.5 and a co-polyamino acid bearing carboxylate charges and hydrophobic radicals” (ADOCIA, priority 2017, dated 2023).

Details: patients, background statement

For insulin glargine, the “Period over which the hypoglycemic effect is quasi-constant” value is listed as 24 h.
